According to paper PMC11761369 (bioRxiv, 2025):
Each block holds one molecule with its values, some of them ahead of it.

Legend:
[1] = tested on: clathrin-mediated endocytosis; experiment: Microscopy of AA3H entry with inhibition of clathrin-mediated endocytosis; format: cell-based; details: Pitstop2 40 μM
BBB cells = experiment: UPLC-MS of PepTGN and analogs after incubation with BBB cells; format: cell-based; details: UPLC-MS (Figure 6C)
bEND.3 cell line = experiment: μMap profiling of PepTGN intracellular interactors; format: cell-based, mouse; details: 37 °C, 1 h incubation
[2] = format: cell-based; details: after 30 minutes incubation; overlaying with ER-marker (ERp57/ERp60 antibody)
CALCRL = CALCRL (Homo sapiens, UniProt O60894+Q16602); experiment: Flow cytometry of FITC-labeled PepTGN internalization with blocking agents; format: cell-based; details: compared to non-binding isotype control
Chain of CALCRL (Q16602 23-461): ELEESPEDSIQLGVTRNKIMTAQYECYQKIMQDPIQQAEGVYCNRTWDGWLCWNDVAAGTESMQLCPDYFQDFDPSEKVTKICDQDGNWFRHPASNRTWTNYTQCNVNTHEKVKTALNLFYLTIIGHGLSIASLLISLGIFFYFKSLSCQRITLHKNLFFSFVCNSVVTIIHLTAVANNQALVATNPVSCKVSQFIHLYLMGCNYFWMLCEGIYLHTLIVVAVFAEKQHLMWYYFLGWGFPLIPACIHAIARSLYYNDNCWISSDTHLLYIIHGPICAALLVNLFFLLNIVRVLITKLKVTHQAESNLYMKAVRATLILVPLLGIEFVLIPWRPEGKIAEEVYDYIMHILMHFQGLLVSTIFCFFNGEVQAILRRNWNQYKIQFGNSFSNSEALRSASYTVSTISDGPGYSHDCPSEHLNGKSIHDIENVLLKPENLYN
Chain of CALCRL (O60894 27-148): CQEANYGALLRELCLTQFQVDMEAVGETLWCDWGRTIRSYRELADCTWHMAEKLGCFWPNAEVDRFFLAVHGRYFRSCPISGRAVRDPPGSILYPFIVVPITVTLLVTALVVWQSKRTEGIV

Molecule: O=C1NC(=NS(=O)(=O)c2cccc3ccccc23)S/C1=C\c1ccc(Br)cc1 [Pitstop2]
- effect on AA3H internalization [1]: disrupted

- +322 mass shift after incubation with BBB cells (BBB cells): did not display
Molecule: AGNYKALHPHNG [T12A analog]

- interactor genes associated to ER and Golgi trafficking and secretory pathways (bEND.3 cell line): about 30%
- cellular localization [2]: distinct puncta
Molecule: TGNYKALHPHNG [PepTGN]

- effect of pre-incubation on PepTGN internalization (CALCRL): significantly decreased
B1: Erenumab: monoclonal antibody used in migraine therapy that targets CALCRL and inhibits CGRP binding (antibody, chains of the INN, looked up, V domains shown)
VH: QVQLVESGGGVVQPGRSLRLSCAASGFTFSSFGMHWVRQAPGKGLEWVAVISFDGSIKYSVDSVKGRFTISRDNSKNTLFLQMNSLRAEDTAVYYCARDRLNYYDSSGYYHYKYYGMAVWGQGTTVTVSS
VL: QSVLTQPPSVSAAPGQKVTISCSGSSSNIGNNYVSWYQQLPGTAPKLLIYDNNKRPSGIPDRFSGSKSGTSTTLGITGLQTGDEADYYCGTWDSRLSAVVFGGGTKLTVL
